Test systems include DLD-1 colon; HOP-18 NSCLC; KM20L2 colon; LXFL 529 NSCLC; M19-MEL melanoma; MDA-N; SNB-78 CNS; XF 498 CNS; RXF-631 renal.
What all share (assay): NCI-60 cell line screen, 48 h

Molecules are shown by their SMILES.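 Compound exposure: 48 hours, 5 concentrations, 96-well plates. At the TGI there is no net growth.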

Take `Cc1cc(NC(=O)NC(=O)c2ccccc2[N+](=O)[O-])ccc1Oc1ncc(Cl)cn1`: the TGI in the assay with DLD-1 colon is 43.7 µM; in the assay with HOP-18 NSCLC, 91.1 µM; with KM20L2 colon it was 0.44 µM; in the assay with LXFL 529 NSCLC, 24.3 µM; with M19-MEL melanoma, > 100 µM; in the assay on MDA-N, 29.5 µM. For the same molecule, the values for the TGI with SNB-78 CNS and in the assay on XF 498 CNS were 62.6 µM and 17.9 µM, respectively.

Consider `COC(=O)C(C(=O)C(=O)Nc1c(Cl)cc([N+](=O)[O-])cc1Cl)c1nc2cc(C)c(C)cc2[nH]c1=O` (stereo not drawn), for which the TGI in the assay on DLD-1 colon, with HOP-18 NSCLC, in the assay on KM20L2 colon, in the assay on LXFL 529 NSCLC, with M19-MEL melanoma and in the assay with RXF-631 renal was > 100 µM each time. Also, in the assay with SNB-78 CNS, the TGI was > 100 µM.

Regarding `O=C(O)c1ccc([N+](=O)[O-])c(P(=O)(O)O)c1`, in the assay with MDA-N, the TGI is > 100 µM.

As for `Cc1cc(=O)[nH]c(CNC(=O)c2cccc3ccccc23)n1`, the TGI in the assay with DLD-1 colon, in the assay with KM20L2 colon, in the assay with LXFL 529 NSCLC, in the assay on M19-MEL melanoma, in the assay on SNB-78 CNS and in the assay on XF 498 CNS was > 100 µM each time.

In the assay on MDA-N, `Oc1ccc(Cl)cc1Cc1cc(Cl)cc(Cc2cc(Cl)ccc2O)c1O` had a TGI of 8.31 µM.

Take `CC(=O)c1cc2c3c(c1)c1cc4c(cc1c(=O)n3CC2)OCO4`: the TGI with DLD-1 colon was > 100 µM; in the assay on HOP-18 NSCLC it was 76.6 µM; with KM20L2 colon, > 100 µM; with LXFL 529 NSCLC it was > 100 µM; in the assay with M19-MEL melanoma, > 100 µM; in the assay on RXF-631 renal, > 100 µM. Besides, the TGI in the assay with SNB-78 CNS and in the assay with XF 498 CNS was > 100 µM each time.

With `O=S1(=O)COc2ccccc2-c2ncncc21`, the TGI with DLD-1 colon, in the assay with HOP-18 NSCLC, in the assay on KM20L2 colon, in the assay with LXFL 529 NSCLC, with M19-MEL melanoma and in the assay with RXF-631 renal was > 100 µM each time. Moreover, the TGI in the assay on SNB-78 CNS is > 100 µM.

Take `CCOC(=O)NC(=O)c1cn(CCCCCCCCCCC(=O)N2CCN(CCn3cc(C(=O)NC(=O)OCC)c(=O)[nH]c3=O)CC2)c(=O)[nH]c1=O`: the TGI with DLD-1 colon, with HOP-18 NSCLC, with KM20L2 colon, with LXFL 529 NSCLC, with M19-MEL melanoma and in the assay with RXF-631 renal was > 100 µM each time. Further, the TGI in the assay on SNB-78 CNS and with XF 498 CNS was > 100 µM throughout.

In the case of `CCOC(=O)/C(=C/c1cc(OC)ccc1OC)CC(=O)O`, the TGI was > 31.6 µM in the assay on DLD-1 colon; > 100 µM with HOP-18 NSCLC; > 100 µM with KM20L2 colon; > 100 µM in the assay on LXFL 529 NSCLC; > 100 µM with M19-MEL melanoma; > 100 µM in the assay on RXF-631 renal. The TGI with SNB-78 CNS was > 100 µM; in the assay on XF 498 CNS, > 56.7 µM.

As to `N#CC(NC12CC3CC(CC(C3)C1)C2)c1ccccc1` (stereo not drawn), the TGI in the assay on MDA-N is > 100 µM.

`OCC1OC(n2ccc3cnccc32)CC1O` (stereo not drawn): the TGI with DLD-1 colon, in the assay with HOP-18 NSCLC, in the assay on LXFL 529 NSCLC, in the assay on M19-MEL melanoma and with SNB-78 CNS was > 100 µM each time.

As for `COc1ccc(C2Cc3cc(OC)c(OC)c(OC)c3C2=O)cc1` (stereo not drawn), the TGI in the assay on DLD-1 colon, in the assay on HOP-18 NSCLC, with KM20L2 colon, in the assay on M19-MEL melanoma and in the assay on SNB-78 CNS was > 100 µM each time.

Consider `Cc1cc(=O)cc2sc3cc(Cl)ccc3nc1-2`, for which the TGI in the assay with DLD-1 colon was > 100 µM; in the assay on HOP-18 NSCLC, > 100 µM; with KM20L2 colon it was 30.1 µM; with LXFL 529 NSCLC it was > 100 µM; in the assay on M19-MEL melanoma, 31.2 µM; with SNB-78 CNS, > 100 µM. The molecule also had a TGI with XF 498 CNS of 31.3 µM.

With `CC1=C(C)C(=O)c2c(cc3c4ccccc4ccn23)C1=O`, the TGI in the assay with DLD-1 colon, in the assay with HOP-18 NSCLC, in the assay with KM20L2 colon, in the assay with M19-MEL melanoma and in the assay on XF 498 CNS was > 100 µM each time.

Regarding `C=CCOC1=C2CC[C@H](O)[C@@]2(C)CCC1=O`, the TGI with DLD-1 colon, in the assay with HOP-18 NSCLC, in the assay on KM20L2 colon, in the assay with LXFL 529 NSCLC, in the assay on M19-MEL melanoma and in the assay on SNB-78 CNS was > 100 µM throughout.

As for `COC1OC(COCc2ccc(Cl)cc2)C(OCc2ccc(Cl)cc2)C1O` (stereo not drawn), the TGI in the assay on DLD-1 colon is 34.1 µM; with HOP-18 NSCLC, 25.7 µM; in the assay on KM20L2 colon, 31.9 µM; in the assay with LXFL 529 NSCLC, 43.3 µM; in the assay with M19-MEL melanoma, 35.9 µM; with RXF-631 renal, 34.6 µM. Besides, in the assay on XF 498 CNS, the TGI was 16 µM.

In the case of `Nc1ccccc1S(=O)c1ccccc1` (stereo not drawn), the TGI in the assay on HOP-18 NSCLC, with KM20L2 colon, in the assay with LXFL 529 NSCLC, with M19-MEL melanoma and in the assay with XF 498 CNS was > 100 µM in each case.

On to `O=C(CC(=O)C(=O)CC(=O)OCc1ccccc1)OCc1ccccc1`, for which the TGI in the assay with DLD-1 colon, with KM20L2 colon, with LXFL 529 NSCLC and in the assay with M19-MEL melanoma was > 100 µM in each case.

In the case of `NC(Cc1cc(Br)c(O)c(Br)c1)C(=O)O` (stereo not drawn), in the assay on MDA-N, the TGI is > 100 µM.

`CC(C)CC(=O)N1CCN(C(=O)CC(C)C)c2ccccc21`: the TGI in the assay with DLD-1 colon, with HOP-18 NSCLC, in the assay on KM20L2 colon, in the assay on LXFL 529 NSCLC, in the assay on M19-MEL melanoma and in the assay with RXF-631 renal was > 100 µM throughout. The TGI in the assay with SNB-78 CNS and with XF 498 CNS was > 100 µM throughout.

The values above are taken from PubChem BioAssay (NCI).
